The record followed here is ChEMBL document CHEMBL1201862, “PubChem BioAssay data set” (2004).

Test [1] concerns the target Glycogen synthase kinase-3 alpha (Homo sapiens, UniProt P49840). Briefly: Inhibition of Human GSK-3 alpha Activity Measured in Biochemical System Using Microfluidics - 2063-06_Inhibitor_Dose_DryPowder_Activity_Set2. [Related pubchem assays (depositor defined):AID2709].
The target in test [2] is Glycogen synthase kinase-3 beta (Homo sapiens, UniProt P49841). Briefly: Inhibition of Human GSK-3 beta Activity Measured in Biochemical System Using Microfluidics - 2063-05_Inhibitor_Dose_DryPowder_Activity_Set2. [Related pubchem assays (depositor defined):AID2709].
Test [3] addresses Cyclin-dependent kinase 5/CDK5 activator 1 (Homo sapiens, UniProt Q00535). Kind of test: human CDK5 activity blockade – biochemical, microfluidic mobility shift, dry powder, selectivity assay for GSK-3 alpha inhibitor project, dose response (AID 588430).
The target of test [4] is 26S proteasome non-ATPase regulatory subunit 14 (Homo sapiens, UniProt O00487). Kind of test: inhibition of proteasome subunit RPN11 – biochemical, fluorescence polarization, uHTS hits, confirmation (AID 602368). Format: functional.
Test [5] addresses 72 kDa type IV collagenase (Homo sapiens, UniProt P08253). Briefly: Dose Response validation of uHTS RPN11 inhibitor hits using a MMP-2 Fluorescence assay. Format: functional.
For test [6], the target named is Prothrombin (Bos taurus, UniProt P00735). Briefly: thrombin protease inhibitors – biochemical, fluorescence polarization, uHTS hits, dose response (AID 602369). The class given is functional.
Test [7] has as its system Candida albicans. Briefly: resistant Candida growth with fluconazole co-treatment – CaCi-8 strain, Alamar Blue, dry powder, set 3, dose response (AID 488905). Format: functional, organism-based. For orientation: Resazurin is reduced to fluorescent resorufin, in cell work by metabolically active cells.
The test system of test [8] is Candida albicans. Kind of test: Candida growth inhibition combined with fluconazole – CaCi-2 strain, Alamar Blue, dry powder, set 3, dose response (AID 488907). Format: functional, organism-based.
Test [9] deals with CHO-K1. Briefly: Counterscreen for antagonists of the orexin 1 receptor (OX1R; HCRTR1): Homogeneous time resolved fluorescence (HTRF)-based cell-based dose response assay to identify antagonists of the parental CHO-K1 cell line. [Related pubchem assays (depositor defined):AID434989, AID435008, AID463079, AID485270, AID492963, AID492964, AID492965, AID493232, AID504699, AID504701]. Format: functional. The note with it: Cricetulus griseus. In general terms: Counterscreens check selectivity or assay interference.

A short description of test [10]: Counterscreen for antagonists of the orexin 1 receptor (OX1R; HCRTR1): Fluorescence-based cell-based high throughput dose response assay to identify antagonists of the parental CHO cell line. [Related pubchem assays (depositor defined):AID434989, AID435008, AID463079, AID485270, AID492963, AID492964, AID492965, AID493232, AID504699, AID504701]. Format: functional.

In test [11] the target is T1, Orexin/Hypocretin receptor type 1 (Homo sapiens, UniProt O43613).
T1 sequence (O43613 whole entry): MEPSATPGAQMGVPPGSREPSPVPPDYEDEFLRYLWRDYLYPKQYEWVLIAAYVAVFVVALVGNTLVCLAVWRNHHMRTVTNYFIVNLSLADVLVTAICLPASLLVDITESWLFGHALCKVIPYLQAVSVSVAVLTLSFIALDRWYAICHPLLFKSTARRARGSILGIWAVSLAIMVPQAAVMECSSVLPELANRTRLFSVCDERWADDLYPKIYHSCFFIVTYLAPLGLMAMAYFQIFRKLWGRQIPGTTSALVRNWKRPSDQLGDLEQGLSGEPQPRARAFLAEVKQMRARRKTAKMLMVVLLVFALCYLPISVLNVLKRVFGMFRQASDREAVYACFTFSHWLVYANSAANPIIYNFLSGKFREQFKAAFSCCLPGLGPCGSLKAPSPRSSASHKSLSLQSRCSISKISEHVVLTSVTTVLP
Briefly: Homogeneous Time Resolved Fluorescence (HTRF)-based cell-based high throughput dose response assay for antagonists of the orexin 1 receptor (OX1R; HCRTR1). [Related pubchem assays (depositor defined):AID434989, AID435008, AID463079, AID485270, AID492963, AID492964, AID492965, AID493232, AID504717, AID504718]. Format: functional. On the technique in general: Time-resolved FRET reads energy transfer from a long-lived donor to a nearby acceptor.

Test [12] deals with T1, Orexin/Hypocretin receptor type 1. Kind of test: Fluorescence-based cell-based high throughput dose response assay for antagonists of the orexin 1 receptor (OX1R; HCRTR1). [Related pubchem assays (depositor defined):AID434989, AID435008, AID463079, AID485270, AID492963, AID492964, AID492965, AID493232, AID504717, AID504718]. Format: functional.
Test [13] has as its target T2, Polyadenylate-binding protein 1 (Homo sapiens, UniProt P11940). Kind of test: MLLE binding blockers, Cy5 peptide tracer – biochemical, fluorescence polarization, Cy5-PAM2 peptide, secondary, miRNA deadenylation inhibitor project, dose response (AID 602260). The note with it: read-out: IC50_Mean. Format: functional.
Test [14] has as its target T2, Polyadenylate-binding protein 1. Kind of test: MLLE domain peptide-binding blockers, IC50 – biochemical, fluorescence polarization, FITC-PAM2 peptide, dose response (AID 602259). Format: functional. The note with it: read-out: IC50_Mean.
Test [15] addresses T3, Orexin receptor type 2 (Homo sapiens, UniProt O43614). Briefly: Counterscreen assay for antagonists of the orexin 1 receptor (OX1R; HCRTR1): Fluorescence-based cell-based dose response assay for antagonists of the orexin 2 receptor (OX2R; HCRTR2), run by assay provider. The class given is functional.
Test [16] has as its target T3, Orexin receptor type 2. Briefly: Counterscreen assay for antagonists of the orexin 1 receptor (OX1R; HCRTR1): Homogeneous Time Resolved Fluorescence (HTRF)-based cell-based dose response assay for antagonists of the orexin 2 receptor (OX2R; HCRTR2), run by assay provider. Format: functional.
Test [17] addresses Cyclin-dependent kinase 2 (Homo sapiens, UniProt P24941). Briefly: inhibition of human CDK2/cyclin A – biochemical, cherry-picked samples, selectivity assay for Dyrk1A inhibitor project, dose response (AID 602127).
In test [18] the target is Dual specificity protein kinase CLK1 (Homo sapiens, UniProt P49759). Kind of test: inhibition of human CLK1 activity – biochemical, cherry-picked samples, selectivity assay for Dyrk1A inhibitor project, dose response (AID 588811).
For test [19], the target named is T4, Sphingosine 1-phosphate receptor 2 (Homo sapiens, UniProt O95136). Kind of test: Late-stage fluorescence-based dose-response cell-based counterscreen assay to identify agonists of the Sphingosine 1-Phosphate Receptor 3 (S1P3): Sphingosine 1-Phosphate Receptor 2 (S1P2) agonist assay. Format: functional.
For test [20], the target named is Sphingosine 1-phosphate receptor 4 (Homo sapiens, UniProt O95977). Kind of test: Late-stage fluorescence-based dose-response cell-based counterscreen assay to identify agonists of the Sphingosine 1-Phosphate Receptor 3 (S1P3): Sphingosine 1-Phosphate Receptor 4 (S1P4) agonist assay. The class given is functional.
Test [21] has as its target DNA dC->dU-editing enzyme APOBEC-3G (Homo sapiens, UniProt Q9HC16). Kind of test: inhibition of APOBEC3G ssDNA deamination – biochemical, fluorescence, single-stranded DNA substrate, SAR follow-up (AID 602136). Format: functional. The note with it: read-out: IC50_Mean.
The target in test [22] is DNA dC->dU-editing enzyme APOBEC-3A (Homo sapiens, UniProt P31941). Kind of test: SAR analysis of small molecule inhibitors of APOBEC3A DNA Deaminase via a fluorescence-based single-stranded DNA deaminase assay. The class given is functional. The note with it: read-out: IC50_Mean.
In test [23] the target is Sphingosine 1-phosphate receptor 1 (Homo sapiens, UniProt P21453). Briefly: Late-stage fluorescence-based dose-response cell-based counterscreen assay to identify agonists of the Sphingosine 1-Phosphate Receptor 4 (S1P4): Sphingosine 1-Phosphate Receptor 1 (S1P1) agonist assay Set 2. The class given is functional.
Test [24] addresses Sphingosine 1-phosphate receptor 5 (Homo sapiens, UniProt Q9H228). Kind of test: activation of human S1P5 receptor – cell-based, fluorescence, set 2, counter-screen for S1P4 agonist project, late-stage follow-up (AID 504867). Format: functional.
Test [25] has as its target Sphingosine 1-phosphate receptor 3 (Homo sapiens, UniProt Q99500). Kind of test: Late-stage fluorescence-based dose-response cell-based counterscreen assay to identify agonists of the Sphingosine 1-Phosphate Receptor 4 (S1P4): Sphingosine 1-Phosphate Receptor 3 (S1P3) agonist assay Set 2. The class given is functional.
The target in test [26] is T4, Sphingosine 1-phosphate receptor 2. Kind of test: activation of human S1P2 receptor – cell-based, fluorescence, set 2, counter-screen for S1P4 agonist project, late-stage follow-up (AID 504873). Format: functional.

Calls of active or inactive are those of the source. A value given as a limit tells only on which side of the number the result lay.

T4 sequence (O95136 whole entry): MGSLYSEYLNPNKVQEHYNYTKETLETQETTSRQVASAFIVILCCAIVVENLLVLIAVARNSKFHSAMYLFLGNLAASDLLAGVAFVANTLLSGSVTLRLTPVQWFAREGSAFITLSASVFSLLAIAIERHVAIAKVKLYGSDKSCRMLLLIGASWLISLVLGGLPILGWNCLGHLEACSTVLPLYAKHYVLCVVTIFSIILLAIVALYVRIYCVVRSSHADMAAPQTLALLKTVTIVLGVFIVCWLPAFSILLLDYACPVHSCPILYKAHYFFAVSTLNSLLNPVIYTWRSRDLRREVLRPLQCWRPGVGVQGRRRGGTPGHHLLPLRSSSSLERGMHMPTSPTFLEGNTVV
T3 sequence (O43614 whole entry): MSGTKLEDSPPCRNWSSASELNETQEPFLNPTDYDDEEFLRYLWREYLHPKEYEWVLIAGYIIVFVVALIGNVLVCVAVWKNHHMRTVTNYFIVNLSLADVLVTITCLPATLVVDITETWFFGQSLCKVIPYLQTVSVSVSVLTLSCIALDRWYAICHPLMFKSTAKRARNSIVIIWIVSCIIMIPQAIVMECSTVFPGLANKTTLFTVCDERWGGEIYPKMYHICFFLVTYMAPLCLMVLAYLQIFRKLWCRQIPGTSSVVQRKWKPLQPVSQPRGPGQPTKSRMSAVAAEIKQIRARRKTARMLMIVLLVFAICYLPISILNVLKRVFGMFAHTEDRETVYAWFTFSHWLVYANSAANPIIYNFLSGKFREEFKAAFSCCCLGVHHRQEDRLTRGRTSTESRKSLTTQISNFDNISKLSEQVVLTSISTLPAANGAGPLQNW
T2 sequence (P11940 whole entry, the tested form may be a part): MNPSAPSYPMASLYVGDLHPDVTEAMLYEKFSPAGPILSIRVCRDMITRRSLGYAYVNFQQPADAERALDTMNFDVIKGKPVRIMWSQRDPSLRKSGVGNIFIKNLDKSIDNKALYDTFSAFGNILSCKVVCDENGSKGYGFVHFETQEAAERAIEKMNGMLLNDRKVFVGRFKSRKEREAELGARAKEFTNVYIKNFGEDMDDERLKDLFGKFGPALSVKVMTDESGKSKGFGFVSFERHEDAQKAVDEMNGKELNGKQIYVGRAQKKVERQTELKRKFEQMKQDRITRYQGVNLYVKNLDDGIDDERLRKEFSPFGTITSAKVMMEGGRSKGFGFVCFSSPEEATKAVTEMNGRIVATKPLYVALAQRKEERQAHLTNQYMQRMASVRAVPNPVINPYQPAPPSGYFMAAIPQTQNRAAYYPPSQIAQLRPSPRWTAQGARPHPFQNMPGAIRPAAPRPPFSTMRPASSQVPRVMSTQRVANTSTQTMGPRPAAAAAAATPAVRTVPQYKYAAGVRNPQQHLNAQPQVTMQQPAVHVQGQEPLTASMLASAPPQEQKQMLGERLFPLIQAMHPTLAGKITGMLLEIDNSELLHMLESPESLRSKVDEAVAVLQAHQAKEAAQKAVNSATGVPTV
Sphingosine 1-phosphate receptor 5, sequence (Q9H228 whole entry): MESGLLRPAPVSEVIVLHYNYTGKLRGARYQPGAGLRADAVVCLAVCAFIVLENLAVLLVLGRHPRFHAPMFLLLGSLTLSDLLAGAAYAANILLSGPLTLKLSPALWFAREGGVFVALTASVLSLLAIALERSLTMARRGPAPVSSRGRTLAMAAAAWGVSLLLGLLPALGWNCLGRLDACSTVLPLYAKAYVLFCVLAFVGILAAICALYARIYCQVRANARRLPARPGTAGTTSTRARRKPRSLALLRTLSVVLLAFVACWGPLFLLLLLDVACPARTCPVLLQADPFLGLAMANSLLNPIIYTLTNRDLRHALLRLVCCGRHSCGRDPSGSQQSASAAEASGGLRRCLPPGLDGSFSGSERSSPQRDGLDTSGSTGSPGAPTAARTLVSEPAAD
Glycogen synthase kinase-3 beta, sequence (P49841 whole entry): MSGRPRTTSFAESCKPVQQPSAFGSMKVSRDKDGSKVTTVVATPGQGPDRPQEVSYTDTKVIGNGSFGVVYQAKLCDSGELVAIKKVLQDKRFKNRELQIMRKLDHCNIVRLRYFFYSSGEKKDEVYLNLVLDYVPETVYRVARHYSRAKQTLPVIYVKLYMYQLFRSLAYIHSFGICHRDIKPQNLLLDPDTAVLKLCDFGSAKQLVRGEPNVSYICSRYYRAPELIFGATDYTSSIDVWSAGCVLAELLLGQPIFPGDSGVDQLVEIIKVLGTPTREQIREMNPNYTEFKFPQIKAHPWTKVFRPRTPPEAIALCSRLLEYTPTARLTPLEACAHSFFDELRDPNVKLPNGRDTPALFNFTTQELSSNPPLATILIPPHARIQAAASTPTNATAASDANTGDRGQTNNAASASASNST
Cyclin-dependent kinase 5/CDK5 activator 1, sequence (Q00535 whole entry): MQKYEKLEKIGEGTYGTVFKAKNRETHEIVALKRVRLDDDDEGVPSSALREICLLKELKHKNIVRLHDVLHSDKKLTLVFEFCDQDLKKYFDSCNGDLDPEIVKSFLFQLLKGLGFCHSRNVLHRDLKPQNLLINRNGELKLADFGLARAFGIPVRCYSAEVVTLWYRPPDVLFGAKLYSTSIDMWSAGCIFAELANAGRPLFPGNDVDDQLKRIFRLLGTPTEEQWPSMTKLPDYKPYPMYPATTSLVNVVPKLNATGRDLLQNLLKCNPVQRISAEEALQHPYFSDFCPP
Cyclin-dependent kinase 5/CDK5 activator 1, sequence (Q15078 whole entry, further chain): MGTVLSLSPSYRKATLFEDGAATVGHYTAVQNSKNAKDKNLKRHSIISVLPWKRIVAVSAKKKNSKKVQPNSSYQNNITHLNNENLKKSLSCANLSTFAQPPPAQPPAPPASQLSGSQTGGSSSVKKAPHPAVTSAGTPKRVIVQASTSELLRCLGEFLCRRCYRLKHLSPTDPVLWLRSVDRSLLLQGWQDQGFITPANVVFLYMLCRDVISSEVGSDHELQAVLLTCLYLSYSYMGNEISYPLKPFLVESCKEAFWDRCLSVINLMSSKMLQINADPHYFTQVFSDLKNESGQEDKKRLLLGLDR
Sphingosine 1-phosphate receptor 3, sequence (Q99500 whole entry): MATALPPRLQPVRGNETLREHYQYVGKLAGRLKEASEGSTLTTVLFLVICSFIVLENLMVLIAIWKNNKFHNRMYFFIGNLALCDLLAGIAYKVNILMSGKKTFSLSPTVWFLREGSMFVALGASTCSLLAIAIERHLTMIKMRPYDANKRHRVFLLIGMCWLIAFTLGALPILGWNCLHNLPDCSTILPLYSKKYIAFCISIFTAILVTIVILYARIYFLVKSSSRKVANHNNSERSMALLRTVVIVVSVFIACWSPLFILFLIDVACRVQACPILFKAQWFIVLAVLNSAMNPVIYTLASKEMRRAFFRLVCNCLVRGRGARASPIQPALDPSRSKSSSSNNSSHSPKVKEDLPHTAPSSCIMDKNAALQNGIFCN
Dual specificity protein kinase CLK1, sequence (P49759 whole entry): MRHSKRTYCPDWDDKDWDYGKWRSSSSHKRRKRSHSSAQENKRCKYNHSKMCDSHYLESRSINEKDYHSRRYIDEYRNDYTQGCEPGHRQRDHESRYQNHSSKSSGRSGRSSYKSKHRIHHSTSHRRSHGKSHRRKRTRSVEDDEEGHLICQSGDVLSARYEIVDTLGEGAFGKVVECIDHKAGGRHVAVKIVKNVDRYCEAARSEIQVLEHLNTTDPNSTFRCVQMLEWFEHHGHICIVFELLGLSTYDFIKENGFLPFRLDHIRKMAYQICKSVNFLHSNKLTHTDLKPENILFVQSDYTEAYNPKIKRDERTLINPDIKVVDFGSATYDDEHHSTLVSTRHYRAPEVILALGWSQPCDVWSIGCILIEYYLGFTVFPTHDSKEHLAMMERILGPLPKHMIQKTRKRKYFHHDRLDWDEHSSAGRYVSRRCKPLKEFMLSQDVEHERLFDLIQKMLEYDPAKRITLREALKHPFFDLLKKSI
DNA dC->dU-editing enzyme APOBEC-3A, sequence (P31941 whole entry): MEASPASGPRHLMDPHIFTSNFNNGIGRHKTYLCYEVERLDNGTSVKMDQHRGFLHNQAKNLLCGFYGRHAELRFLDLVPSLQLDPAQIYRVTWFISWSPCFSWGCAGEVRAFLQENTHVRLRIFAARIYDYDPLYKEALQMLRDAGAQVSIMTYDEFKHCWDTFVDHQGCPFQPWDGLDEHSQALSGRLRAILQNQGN
72 kDa type IV collagenase, sequence (P08253 whole entry): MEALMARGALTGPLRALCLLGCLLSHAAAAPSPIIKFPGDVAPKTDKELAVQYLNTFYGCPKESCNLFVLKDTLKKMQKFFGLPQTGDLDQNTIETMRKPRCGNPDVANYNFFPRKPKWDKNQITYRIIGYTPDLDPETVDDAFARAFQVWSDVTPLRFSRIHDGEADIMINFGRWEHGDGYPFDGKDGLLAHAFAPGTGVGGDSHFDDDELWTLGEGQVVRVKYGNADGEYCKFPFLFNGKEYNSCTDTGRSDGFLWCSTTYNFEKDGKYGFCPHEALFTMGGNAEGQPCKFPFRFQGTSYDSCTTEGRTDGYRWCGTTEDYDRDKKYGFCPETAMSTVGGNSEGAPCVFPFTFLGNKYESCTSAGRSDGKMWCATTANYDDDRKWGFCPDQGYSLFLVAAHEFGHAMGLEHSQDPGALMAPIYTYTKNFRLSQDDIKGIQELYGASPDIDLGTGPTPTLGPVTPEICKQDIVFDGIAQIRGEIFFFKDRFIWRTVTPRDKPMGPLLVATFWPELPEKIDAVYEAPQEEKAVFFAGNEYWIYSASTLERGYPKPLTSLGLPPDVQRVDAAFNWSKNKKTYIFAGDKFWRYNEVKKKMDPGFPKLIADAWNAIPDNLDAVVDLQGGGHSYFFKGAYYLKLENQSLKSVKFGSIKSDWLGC
26S proteasome non-ATPase regulatory subunit 14, sequence (O00487 whole entry): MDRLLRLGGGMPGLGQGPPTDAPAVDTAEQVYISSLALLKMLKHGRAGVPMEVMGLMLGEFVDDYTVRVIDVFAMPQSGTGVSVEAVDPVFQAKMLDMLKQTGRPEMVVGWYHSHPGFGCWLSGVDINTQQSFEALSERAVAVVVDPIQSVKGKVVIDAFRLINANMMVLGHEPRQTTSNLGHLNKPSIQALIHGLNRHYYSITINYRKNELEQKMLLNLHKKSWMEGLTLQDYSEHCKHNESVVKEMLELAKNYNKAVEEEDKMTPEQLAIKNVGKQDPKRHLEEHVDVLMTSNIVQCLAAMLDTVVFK

In general, AC50 refers to the concentration at which the activity in the assay is half-maximal. With `O=C(CSc1ccc2nnc(-c3cccs3)n2n1)N1CCCC1`, the AC50 in test [1] is 2.08 µM (active); in test [2], 0.742 µM (active); in [3], 78.4 µM (active).
As for `O=C1NC(=O)N(c2cccc3ccccc23)C(=O)/C1=C\NN1CCCCC1c1cccnc1` (stereo unspecified), the figures for the IC50 in test [4], in test [5] and in test [6] were 27.4 µM (active), > 100 µM (inactive) and 59.6 µM (active), respectively.
On to `Cc1ccc(C(=O)N2CCN(c3ccccn3)CC2)cc1`, for which the concentration at half-maximal activity (AC50) was 10.4 µM (active) in test [7] and 0.0979 µM (active) in test [8].
For `CCN1C(=O)/C(=C2/SC(C)=C(C)N2CC)SC1=S`, the IC50 in [9] was > 66.2 µM (inactive); in test [10], > 49.8 µM (inactive); in test [11] it was 3.15 µM (active); in [12], 14.7 µM (inactive); in test [13] it was > 66 µM (inactive); in [14], > 66 µM (inactive). For the same compound, the IC50 was > 88.8 µM (inactive) in test [15] and > 50 µM (inactive) in [16].
Consider `c1cncc(CNc2nccc(-c3ccc4[nH]ncc4c3)n2)c1`, for which the AC50 in test [17] is 3.52 µM (active); in [18], 0.0402 µM (active).
For orientation: EC50 means the midpoint of the concentration-response curve. On to `O=C(c1cc(C2CC2)on1)N(C1CCCCCC1)C1CCCC1`, for which the EC50 in test [19] and in test [20] was > 50 µM (inactive) in each case.
Turning to `CN(CC1CCCN(CCc2ccc(Cl)cc2)C1)C(=O)c1cc2ncccn2n1` (stereo unspecified), the IC50 in test [21] and in test [22] was > 99 µM (inactive) throughout.
Take `C/N=C1/S/C(=C/c2cc(C)n(-c3ccc(F)cc3F)c2C)C(=O)N1C`: the EC50 in test [23] is 4.47 µM (active); in test [24] it was > 25 µM (inactive); in [25] it was > 25 µM (inactive); in test [26], > 25 µM (inactive).
